Measurements as given in ChEMBL document CHEMBL1131960, “Simple mono-derivatisation of the aryl moiety of D4A and DDA-based phosphoramidate prodrugs significantly enhances their anti-HIV potency in cell culture” (Bioorg Med Chem Lett, 1999).

Key:
[1] = tested on: esterase; experiment: Compound was evaluated for esterase half-life (t 1/2) period using Pig Liver Esterase (PLE) assay; type: ADME, Sus scrofa
[2] = Compound was evaluated for its lipophilicity by 1-octanol/water (phosphate buffer, pH 7.0) and the partition coefficient (log P) was reported.; type: physicochemical
[3] = tested on: CCRF-CEM; experiment: Compound was evaluated for its concentration (potency) to inhibit the growth of CEM cells.; type: functional; settings: Homo sapiens
[4] = tested on: CCRF-CEM; experiment: Compound was evaluated for its effective concentration (potency) to inhibit the growth of HIV-1 in CEM cell culture.; type: functional, cell-based; settings: Homo sapiens
[5] = tested on: CCRF-CEM; experiment: Compound was evaluated for its effective concentration (potency) to inhibit the growth of HIV-2 in CEM cell culture.; type: functional, cell-based; settings: Homo sapiens
[6] = Compound was evaluated for its ability to inhibit the growth of HIV-1 in CEM cell culture (CC50/EC50); type: functional, CCRF-CEM
[7] = Compound was evaluated for its ability to inhibit the growth of HIV-2 in CEM cell culture (CC50/EC50); type: functional, CCRF-CEM

In the case of `COC(=O)C(C)NP(=O)(OCC1C=CC(n2cnc3c(N)ncnc32)O1)Oc1ccc(I)cc1` (stereo unspecified), the half-life [1] is reported as 62 h, the logD [2] is reported as 2.11 and the CC50 [3] is reported as 0.86 µM. It also gave an EC50 [4] of 0.0023 µM, an EC50 [5] of 0.0017 µM and an SI [6] of 374. The SI [7] was 506.

Compound `COC(=O)C(C)NP(=O)(OCC1CCC(n2cnc3c(N)ncnc32)O1)Oc1ccccc1` (stereo unspecified) has a half-life [1] of 301 h, a logD [2] of 0.89 and a CC50 [3] of 2.57 µM. The EC50 [4] was 0.016 µM, the EC50 [5] was 0.035 µM and the SI [6] was 161. The SI [7] was 73.

Compound `COC(=O)C(C)NP(=O)(OCC1CCC(n2cnc3c(N)ncnc32)O1)Oc1cccc(I)c1` (stereo unspecified) has a half-life [1] of 62 h, a logD [2] of 2.07 and a CC50 [3] of 0.43 µM. The EC50 [4] was 0.0022 µM, the EC50 [5] was 0.0027 µM and the SI [6] was 195. The SI [7] was 159.

With `COC(=O)C(C)NP(=O)(OCC1C=CC(n2cnc3c(N)ncnc32)O1)Oc1ccc(Br)cc1` (stereo unspecified) the half-life [1] was 100 h, the logD [2] was 1.72 and the CC50 [3] was 0.84 µM. It also gave an EC50 [4] of 0.0032 µM, an EC50 [5] of 0.0027 µM and an SI [6] of 263. It also gave an SI [7] of 311.

Compound `Nc1ncnc2c1ncn2[C@H]1C=C[C@@H](CO)O1` has a logD [2] of -0.36, a CC50 [3] of 91 µM and an SI [6] of 4.6. It also gave an SI [7] of 4.6.

With `Nc1ncnc2c1ncn2[C@H]1CC[C@@H](CO)O1` the logD [2] was -0.22, the CC50 [3] was greater than 100 µM and the EC50 [4] was 4 µM. The EC50 [5] was 8 µM, the SI [6] was greater than 25 and the SI [7] was greater than 13.

`COC(=O)C(C)NP(=O)(OCC1C=CC(n2cnc3c(N)ncnc32)O1)Oc1ccccc1` (stereo unspecified) showed a half-life [1] of 301 h, a logD [2] of 0.94 and a CC50 [3] of 3.8 µM. For the same compound, the EC50 [4] was 0.0055 µM, the SI [6] was 691 and the SI [7] was 211.

`COC(=O)C(C)NP(=O)(OCC1CCC(n2cnc3c(N)ncnc32)O1)Oc1cccc(Br)c1` (stereo unspecified) showed a half-life [1] of 75 h, a logD [2] of 1.71 and a CC50 [3] of 0.56 µM. For the same compound, the EC50 [4] was 0.0023 µM, the EC50 [5] was 0.0033 µM and the SI [6] was 243. It also gave an SI [7] of 170.
